From the NIST ThermoML archive (doi:10.1021/je100581m)

Assay: xn = mol fraction of the nth substance listed
Details: Liquid, Vibrating tube method

C=CC(C)(O)CCC=C(C)C (stereo not given) [3,7-dimethyl-1,6-octadien-3-ol] + CCCO
mass density [kg/m3]
Details | x2 = 0 | x2 = 0.107 | x2 = 0.206 | x2 = 0.3066 | x2 = 0.4064 | x2 = 0.501 | x2 = 0.6034 | x2 = 0.7055 | x2 = 0.7985 | x2 = 0.898
283.15 K, 100 kPa | 869.5 | 867 | 864.9 | 862.1 | 859 | 855.4 | 850.3 | 843.7 | 835.9 | 825.2
283.15 K, 5000 kPa | 872.6 | 870.2 | 868.1 | 865.4 | 862.2 | 858.6 | 853.6 | 847 | 839.3 | 828.8
283.15 K, 10000 kPa | 875.7 | 873.1 | 871 | 868.3 | 865.2 | 861.6 | 856.7 | 850 | 842.4 | 832
283.15 K, 15000 kPa | 878.7 | 876.2 | 874.1 | 871.4 | 868.3 | 864.8 | 859.9 | 853.3 | 845.8 | 835.5
283.15 K, 20000 kPa | 881.5 | 879 | 876.9 | 874.4 | 871.3 | 867.7 | 862.8 | 856.3 | 848.8 | 838.6
298.15 K, 100 kPa | 857.3 | 854.8 | 852.7 | 849.9 | 846.8 | 843.2 | 838.2 | 831.6 | 824 | 813.4
298.15 K, 5000 kPa | 860.6 | 858.1 | 856 | 853.3 | 850.2 | 846.7 | 841.7 | 835.1 | 827.7 | 817.2
298.15 K, 10000 kPa | 863.9 | 861.4 | 859.4 | 856.6 | 853.6 | 850.1 | 845.2 | 838.7 | 831.2 | 820.8
298.15 K, 15000 kPa | 867 | 864.6 | 862.6 | 859.9 | 856.8 | 853.3 | 848.5 | 842 | 834.6 | 824.4
298.15 K, 20000 kPa | 870 | 867.7 | 865.6 | 863 | 859.9 | 856.5 | 851.6 | 845.2 | 837.9 | 827.8
